Measurements: ChEMBL document CHEMBL1201862, “PubChem BioAssay data set” (2004)
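How tested: cells in 96-well plates exposed to compound for 48 hours at five concentrations. GI50 is the concentration that inhibits growth by half.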 The source made the active and inactive calls. No stated cut-off is given here; in the data, active = GI50 up to about 1.1 µM and inactive = higher.

Legend:
Experiment in all cases: NCI anticancer screen, dose series, 48 h
CCRF-CEM = tested on: CCRF-CEM
COLO 205 = tested on: COLO 205
EKVX = tested on: EKVX
HL-60 = tested on: HL-60
HOP-92 = tested on: HOP-92
HT-29 = tested on: HT-29
LOX IMVI = tested on: LOX IMVI
MOLT-4 = tested on: MOLT-4
Malme-3M = tested on: Malme-3M
NCI-H226 = tested on: NCI-H226
NCI-H23 = tested on: NCI-H23
NCI-H460 = tested on: NCI-H460
NCI-H522 = tested on: NCI-H522
OVCAR-4 = tested on: OVCAR-4
OVCAR-8 = tested on: OVCAR-8
RPMI-8226 = tested on: RPMI-8226
SNB-75 = tested on: SNB-75
TK-10 = tested on: TK-10
UO-31 = tested on: UO-31

Row | SMILES | GI50 (CCRF-CEM) | GI50 (COLO 205) | GI50 (EKVX) | GI50 (HL-60) | GI50 (HOP-92) | GI50 (HT-29) | GI50 (LOX IMVI) | GI50 (MOLT-4) | GI50 (Malme-3M) | GI50 (NCI-H226) | GI50 (NCI-H23) | GI50 (NCI-H460) | GI50 (NCI-H522) | GI50 (OVCAR-4) | GI50 (OVCAR-8) | GI50 (RPMI-8226) | GI50 (SNB-75) | GI50 (TK-10) | GI50 (UO-31)
1 | CCCCCCCCCc1cc(=O)c2ccc(O)cc2o1 | 16.9 µM (inactive) | 51.4 µM (inactive) | > 100 µM (inactive) | 11.6 µM (inactive) | 16.4 µM (inactive) | > 100 µM (inactive) | 40.2 µM (inactive) | 23.6 µM (inactive) | > 100 µM (inactive) | 12.6 µM (inactive) | 63.5 µM (inactive) | 57.8 µM (inactive) | 31.4 µM (inactive) | 22.3 µM (inactive) | 27.1 µM (inactive) | 17.9 µM (inactive) | 17.2 µM (inactive) | 30 µM (inactive) | 8.85 µM (inactive)
2 | O=C1C[C@H]2[C@H](c3ccc(Br)cc3)[C@H]3C(=O)c4ccccc4NC(=O)[C@@H]3[C@@]2(O)c2ccccc2N1 | 10.6 µM (inactive) | 14.8 µM (inactive) | 48.6 µM (inactive) | 3.09 µM (inactive) | < 0.01 µM (active) | 10.7 µM (inactive) | 13.8 µM (inactive) | 3.94 µM (inactive) | 19.7 µM (inactive) | 14.4 µM (inactive) | 10.4 µM (inactive) | 25.5 µM (inactive) | 12.1 µM (inactive) | 12.5 µM (inactive) | 19 µM (inactive) | 9.82 µM (inactive) | 4.53 µM (inactive) | 17.1 µM (inactive) | 
3 | CC(C)=CC(C(O)c1ccccc1)S(=O)(=O)c1nccn1C (configuration not stated) | > 100 µM (inactive) | > 100 µM (inactive) | > 100 µM (inactive) | > 100 µM (inactive) | > 100 µM (inactive) | > 100 µM (inactive) | > 100 µM (inactive) | > 100 µM (inactive) | > 100 µM (inactive) | > 100 µM (inactive) | > 100 µM (inactive) | > 100 µM (inactive) | > 100 µM (inactive) | > 100 µM (inactive) | > 100 µM (inactive) | > 100 µM (inactive) | > 100 µM (inactive) | > 100 µM (inactive) | > 100 µM (inactive)
4 | COc1cc(CC(C(=O)O)C(=O)O)c(OC)cc1CC(C(=O)O)C(=O)O | > 100 µM (inactive) | > 100 µM (inactive) | > 100 µM (inactive) | > 100 µM (inactive) | > 100 µM (inactive) | > 100 µM (inactive) | > 100 µM (inactive) | > 100 µM (inactive) | > 100 µM (inactive) | > 100 µM (inactive) | > 100 µM (inactive) | > 100 µM (inactive) | > 100 µM (inactive) | > 100 µM (inactive) | > 100 µM (inactive) | > 100 µM (inactive) | > 100 µM (inactive) | > 100 µM (inactive) | > 100 µM (inactive)
5 | O=C1Nc2ccccc2/C1=c1\[nH]c(=O)/c(=C\c2ccc(OCc3ccccc3)cn2)[nH]c1=O | 39.5 µM (inactive) | > 100 µM (inactive) | 86.7 µM (inactive) | 49.4 µM (inactive) | 26.6 µM (inactive) | > 100 µM (inactive) | > 100 µM (inactive) | 52.8 µM (inactive) | 32.4 µM (inactive) | > 100 µM (inactive) | 30.7 µM (inactive) | > 100 µM (inactive) | 94.4 µM (inactive) | 72.4 µM (inactive) | 78.7 µM (inactive) | > 100 µM (inactive) | 4.21 µM (inactive) | 22.4 µM (inactive) | < 0.01 µM (active)
6 | COc1ccc(/C=c2\sc3n(c2=O)C(N)=C(C#N)C(c2ccc(OC)cc2)C=3c2nc3ccccc3[nH]2)cc1 (configuration not stated) | 39.2 µM (inactive) | 56.4 µM (inactive) | 22.6 µM (inactive) | 41.2 µM (inactive) | 12.2 µM (inactive) |  | 18 µM (inactive) | 29.1 µM (inactive) | 22.6 µM (inactive) | 27 µM (inactive) | 5.02 µM (inactive) | 18.6 µM (inactive) | 45.7 µM (inactive) | > 100 µM (inactive) | > 10 µM (inactive) | 55.6 µM (inactive) | 29.6 µM (inactive) | 16.1 µM (inactive) | > 100 µM (inactive)
